Measured values taken from patent US20080019913A1 (UNIVERSITY OF ARIZONA OFFICE OF TECHNOLOGY TRANSFER, published 2008).
Non-standard residues stand in square brackets, D forms with d. Residues, ends and D or L forms follow the SMILES beside them. No end group written: not given here. *: point of attachment. β‑lactoside = OC[C@H]1O[C@@H](O[C@H]2[C@H](O)[C@@H](O)[C@H](*)O[C@@H]2CO)[C@H](O)[C@@H](O)[C@H]1O; X2 = OC[C@H]1O[C@@H](O[C@H]2[C@H](O)[C@@H](O)[C@H](*)O[C@@H]2CO)[C@H](O)[C@@H](O)[C@H]1O; βGlc = OC[C@H]1O[C@@H](*)[C@H](O)[C@@H](O)[C@@H]1O; β‑D‑xyloside = O[C@@H]1[C@@H](O)[C@H](*)OC[C@H]1O; X1 = O[C@@H]1[C@@H](O)[C@H](*)OC[C@H]1O; NMeF = CN[C@@H](Cc1ccccc1)C(=O)O

How the values were obtained:
adult male ICR mice = test: 55° C. warm water tail-flick test (antinociception); assay type: in vivo, mouse; details: for A50 i.c.v. / A50 i.v.: mouse 55° C. tail-flick, time of peak effect; for A50 i.c.v.: i.c.v. administration; for A50 i.v.: i.v. administration
Method: All in vivo studies used adult male ICR mice (25-30 g; Harlan Industries, Cleveland, Ohio, USA) that were maintained on a 12 h light/dark cycle (lights on at 07:00 hours) in a temperature and humidity-controlled animal colony. All testing was carried out between 10:00 and 15:00 hours. Studies were carried out in accordance with the Guide for the Care and Use of Laboratory Animals as adopted and promulgated by the National Institutes of Health.
For intracerebroventricular (i.c.v.) injections, mice were lightly anesthetized with ether and an incision was made in the scalp. Injections were performed using a 10 μL Hamilton microsyringe (Hamilton Company, Reno, Nev., USA) at a point 2 mm caudal and 2 mm lateral from bregma. Compounds were injected at a depth of 3 mm in a volume of 5 μL. Intravenous (i.v.) injections were performed by restraining the mouse in a Plexiglas holder, dipping the tail for 10 seconds in 40° C. warm water to dilate the tail vein, and subsequent injection into the vein with a 30-gauge needle. All compounds were dissolved in distilled water (i.c.v. injections) or physiologic saline (i.v. injections).
Antinociception was assessed using the 55° C. warm water tail-flick test. The latency to the first sign of a rapid tail-flick was taken as the behavioral end-point. Each mouse was first tested for baseline latency by immersing its tail in the water and recording the time to response. Mice not responding within 5 seconds were excluded from further testing (average latency=2.1 seconds). Mice were then administered the test compound and tested for antinociception at 10, 20, 30, 45, 60, 90, 120 and 180 min postinjection. A maximum score was assigned (100%) to animals not responding within 10 seconds. Antinociception was calculated by the following formula: % antinociception=100·(test latency ) control latency)/(10 ) control latency). Dose-response lines were constructed at times of peak agonist effect, and analyzed by linear regression using […] software (17). All A50 values (95% confidence limits) shown were calculated from the linear portion of the dose-response curve. A minimum of three doses/curve and 8-10 mice were used at each dose level.

[1] = target: T1, human Δ-opioid receptor (DOR) (Homo sapiens, UniProt P41143); test: biochemical; assay type: binding
T1 construct: expressed in transfected cells; host or cells: Chinese hamster ovary (CHO) cells

[2] = target: human δ-opioid receptor (human) (UniProt P41143); test: ratio of Ki values from radioligand competition, reference MOR
[3] = target: human δ-opioid receptor (human) (UniProt P41143); test: radioligand competition against [3H]naltrindole, CHO cell membranes expressing human DOR
[4] = target: T2, human μ-opioid receptor (MOR) (Homo sapiens, UniProt P35372); test: biochemical; assay type: binding
T2 construct: expressed in transfected cells; host or cells: Chinese hamster ovary (CHO) cells

human κ-opioid receptor [5] = target: T3, human κ-opioid receptor (human, UniProt P41145 1-380); test: ratio of Ki values from radioligand competition, reference MOR
T3 construct: whole, on cells; Assayed as membranes of CHO cells expressing the receptor; also called KOR
Method: (§1) Binding was determined in Chinese hamster ovary (CHO) cell membranes expressing either the human μ-, Δ-, or κ-opioid receptors (MOR, DOR, and KOR). Cells were incubated with 12 concentrations of glycopeptide and the indicated radiolabeled ligand (Table 1, below). Non-specific binding was measured by inclusion of 10 μM naloxone. Data are the mean Kᵢ values±SEM from three experiments performed in triplicate.

human κ-opioid receptor [6] = target: T3, human κ-opioid receptor; test: radioligand competition against [3H]U69,593, CHO cell membranes expressing human KOR
Method: as §1

human µ-opioid receptor = target: T4, human µ-opioid receptor (human, UniProt P35372 1-400); test: radioligand competition against [3H]DAMGO, CHO cell membranes expressing human MOR
T4 construct: whole, on cells; Assayed as membranes of CHO cells expressing the receptor; also called MOR; mu opioid receptor
Method: as §1

| Molecule | A50 i.c.v. (adult male ICR mice) | A50 i.v. (adult male ICR mice) | Ki [1] | Ratio µ:δ:κ (Ki at δ relative to µ) [2] | Ratio µ:δ:κ (Ki at κ relative to µ) (human κ-opioid receptor [5]) | Ki (human κ-opioid receptor [6]) | also measured |
| --- | --- | --- | --- | --- | --- | --- | --- |
| C[C@@H](NC(=O)[C@@H](N)Cc1ccc(O)cc1)C(=O)NCC(=O)N(C)[C@@H](Cc1ccccc1)C(=O)N[C@@H](CO[C@@H]1O[C@H](CO)[C@@H](O[C@@H]2O[C@H](CO)[C@H](O)[C@H](O)[C@H]2O)[C@H](O)[C@H]1O)C(N)=O [Compound 5] (H-Y[dA]G[NMeF]S(X2)-NH2; N-terminus assumed) | 2.0 pmol per mouse | 1.15 µmol/kg | 1600 ± 129 nM |  |  |  |  |
| C[C@@H](NC(=O)[C@@H](N)Cc1ccc(O)cc1)C(=O)NCC(=O)N(C)[C@@H](Cc1ccccc1)C(=O)NCCO [DAMGO 1, [D-Ala^2,Me-Phe^4Gly^5(ol)]enkephalin, reference compound] | 30 pmol per mouse | 1.88 µmol/kg |  |  |  |  |  |
| CN1CC[C@]23c4c5ccc(O)c4O[C@H]2[C@@H](O)C=C[C@H]3[C@H]1C5 [Morphine, reference compound] |  | 7.84 µmol/kg |  |  |  |  |  |
| DAMGO [D-Ala^2,Me-Phe^4Gly^5(ol)]enkephalin (peptide) |  |  |  | 1900 |  |  | Ki [3]: 990 nM |
| C[C@@H](NC(=O)[C@@H](N)Cc1ccc(O)cc1)C(=O)NCC(=O)N(C)[C@@H](Cc1ccccc1)C(=O)N[C@@H](CO[C@@H]1O[C@H](CO)[C@@H](O)[C@H](O)[C@H]1O)C(N)=O [Compound 4] (H-Y[dA]G[NMeF]S(βGlc)-NH2; N-terminus assumed) | 19 pmol per mouse | 0.72 µmol/kg | > 5000 nM |  |  |  | duration of action (adult male ICR mice; after i.c.v. administration, tail-flick): > 180 min; Ki [4]: 1.3 ± 0.09 nM |
| C[C@@H](NC(=O)[C@@H](N)Cc1ccc(O)cc1)C(=O)NCC(=O)N(C)[C@@H](Cc1ccccc1)C(=O)N[C@@H](CO)C(N)=O [Compound 2] (HELM PEPTIDE1{Y.[dA].G.[meF].S.[am]}$$$$V2.0; N-terminus assumed) | 2.0 pmol per mouse | 0.20 µmol/kg | 600 ± 44 nM |  |  |  |  |
| C[C@@H](NC(=O)[C@@H](N)Cc1ccc(O)cc1)C(=O)NCC(=O)N(C)[C@@H](Cc1ccccc1)C(=O)N[C@@H](CO[C@@H]1OC[C@@H](O)[C@H](O)[C@H]1O)C(N)=O [Compound 3] (H-Y[dA]G[NMeF]S(X1)-NH2; N-terminus assumed) | 2.0 pmol per mouse | 0.27 µmol/kg | 730 ± 66 nM |  |  |  | Ki [4]: 1.3 ± 0.16 nM |
| Y[dA]G[NMeF]S(βGlc)-NH2 (N-terminus assumed; SMILES C[C@@H](NC(=O)[C@@H](N)Cc1ccc(O)cc1)C(=O)NCC(=O)N(C)[C@@H](Cc1ccccc1)C(=O)N[C@@H](CO[C@@H]1O[C@H](CO)[C@@H](O)[C@H](O)[C@H]1O)C(N)=O, Glycopeptide; also called glycopeptide 4) [DAMGO analog compound (4), C-terminal L-serine amide beta-D-glucoside] |  |  |  | 3800 | 130 | 170 nM |  |
| Y[dA]G[NMeF]S(β‑lactoside)-NH2 (N-terminus assumed; SMILES C[C@@H](NC(=O)[C@@H](N)Cc1ccc(O)cc1)C(=O)NCC(=O)N(C)[C@@H](Cc1ccccc1)C(=O)N[C@@H](CO[C@@H]1O[C@H](CO)[C@@H](O[C@@H]2O[C@H](CO)[C@H](O)[C@H](O)[C@H]2O)[C@H](O)[C@H]1O)C(N)=O, Glycopeptide; also called glycopeptide 5) [DAMGO analog compound (5), C-terminal L-serine amide beta-lactoside] |  |  |  | 2400 | 530 | 350 nM | Ki (human µ-opioid receptor): 0.66 nM |
| Y[dA]G[NMeF]S(β‑D‑xyloside)-NH2 (N-terminus assumed; SMILES C[C@@H](NC(=O)[C@@H](N)Cc1ccc(O)cc1)C(=O)NCC(=O)N(C)[C@@H](Cc1ccccc1)C(=O)N[C@@H](CO[C@@H]1OC[C@@H](O)[C@H](O)[C@H]1O)C(N)=O, Glycopeptide; also called glycopeptide 3) [DAMGO analog compound (3), C-terminal L-serine amide beta-D-xyloside] |  |  |  | 560 | 120 | 160 nM |  |
| YAGFS (HELM PEPTIDE1{Y.[dA].G.[meF].S.[am]}$$$$V2.0; N-terminus assumed; SMILES C[C@@H](NC(=O)[C@@H](N)Cc1ccc(O)cc1)C(=O)NCC(=O)N(C)[C@@H](Cc1ccccc1)C(=O)N[C@@H](CO)C(N)=O, Made by Fmoc synthesis on Rink amide resin; also called peptide 2) [DAMGO analog compound (2), C-terminal L-serine amide] |  |  |  | 880 | 280 | 190 nM | Ki (human µ-opioid receptor): 0.68 nM |
